SMILES strings stand for the structures.

For the data set, the target named is hERG1a/1b current (Homo sapiens, UniProt Q12809). How it is done: All working solutions were sterile-filtered, stored at −20 °C and thawed to room temperature before use.
Prior to electrophysiology study, the HEK293-hERG1a/1b cells were first grown in complete medium without selection antibiotics for 6 days. Approximately 5.0 × 10^5 cells were then plated onto an uncoated 96-mm cell culture dish for a maximum of 3 days. […] The cell suspension was then transferred into a 15-ml polypropylene tube and centrifuged at 100 × g for 3 min. Subsequently, the cell pellet was resuspended in extracellular solution to obtain a final density of 2 × 10^6–3 × 10^6 cells/ml and incubated on ice for 20 min to allow cell recovery. The electrophysiology studies were performed using NPC®-1 chips (Nanion Technologies, Germany) and Port-a-Patch system (Nanion Technologies, Germany) following manufacturer’s instructions, within the next 2 h. For characterization and determination of the hERG1a/1b current inhibition, a series of voltage protocols were applied as published previously.
The hERG1a/1b current was recorded in cells achieving whole-cell configuration. Briefly, a single cell was first held at −80 mV, the theoretical cardiac resting membrane potential, on the aperture of the NPC-1 chip (Nanion Technologies, Germany). To characterize the I-V relationship, the cell was depolarized to test potentials ranging from −60 mV to +50 mV for 4 s in […], followed by a 5-s step to −50 mV before returning to −80mV.
To determine the pharmacological effects of the HEK293-hERG1a/1b cells, the cells were perfused with test compound solutions using an external perfusion system. […] The mean of six successive Itail was recorded for each test concentration. Four independent experiments were conducted to derive the dose-response curve.

Regarding `CNCCC(Oc1ccc(C(F)(F)F)cc1)c1ccccc1` (stereo not shown) [fluoxetine, reference compound], the “Hill coefficient (h)” value was 1.19.

The values above are taken from publication PMC6930223 (Scientific Reports, 2019).
